Results reported in patent US20060040944A1, “5-Aza-7-deazapurine derivatives for treating Flaviviridae” (priority 2004, published 2006).
Like-named read-outs stand apart in the source and are kept apart here.

What was measured:
DENV-2 = experiment: Antiviral activity against DENV-2 (Table 2)
MT-4 = MT-4 cell test (Table 2); type: cell-based; conditions: MT-4 cells, no virus named
Yellow Fever = experiment: microbe, parasite or virus in culture; type: cell-based, Yellow fever virus, vaccine strain 17D (YFV-17D)
[1] = test system: host cells of the DENV-2 test (not named); experiment: Cytotoxicity assay (CC50), DENV-2 column; conditions: read-out: DENV-2 CC50; concentration reducing cell number by 50%; cell line not named
[2] = test system: host cells of the West Nile test (not named); experiment: Cytotoxicity assay (CC50), West Nile column; conditions: read-out: West Nile CC50; concentration reducing cell number by 50%; cell line not named
West Nile = experiment: Antiviral activity against West Nile virus (Table 2); conditions: read-out: West Nile EC50
in vitro [3] = conditions: hamster
BVDV = experiment: microbe, parasite or virus in culture; type: cell-based; conditions: Bovine viral diarrhea virus isolates and strains, MDBK, read-out: BVDV EC50
in vitro [4] = conditions: cattle (Bos taurus)
[5] = Cytotoxicity assay (CC50), DENV-2 column
[6] = Cytotoxicity assay (CC50), West Nile column

Nc1nc(=O)n2ccn([C@H]3C[C@H](O)[C@@H](CO)O3)c2n1 [2-amino-8-(β-D-2-deoxyribo-furanosyl)-imidazo[1,2-a]-s-triazin-4-one]
EC50 (DENV-2; read-out: DENV-2 EC50, DENV-2): > 100 µM | EC50 (MT-4): > 100 µM | EC50 (Yellow Fever; read-out: Yellow Fever EC50): > 100 µM | CC50 [1]: > 100 µM | CC50 [2]: > 100 µM | CC50 (BHK-21 cells): > 100 µM | CC50 (BT cells): > 100 µM | EC50 (West Nile): > 100 µM

Nc1nc(=O)n2ccn([C@@H]3O[C@H](CO)[C@@H](O)[C@H]3O)c2n1 [2-amino-8-(β-D-ribo-furanosyl)-imidazo[1,2-a]-s-triazin-4-one]
EC50 (DENV-2; Dengue virus, DENV2, read-out: DENV-2 EC50): > 100 µM | CC50 (in vitro [3]): > 100 µM | EC50 (MT-4; Homo sapiens, MT4): > 100 µM | EC50 (BVDV): 31 µM | CC50 (in vitro [4]): > 100 µM | EC50 (Yellow Fever; Yellow fever virus, BHK-21, read-out: Yellow Fever EC50): > 100 µM | CC50 at 4 days [5]: > 100 µM | CC50 at 4 days [6]: > 100 µM | EC50 (West Nile): > 100 µM
